In paper PMC4393105, “tRNA^Glu Increases the Affinity of Glutamyl-tRNA Synthetase for Its Inhibitor Glutamyl-Sulfamoyl-Adenosine, an Analogue of the Aminoacylation Reaction Intermediate Glutamyl-AMP: Mechanistic and Evolutionary Implications” (PLoS ONE, 2015):
Values joined by “and” are separate entries in the source; they are usually repeats but may differ in a detail not shown here. Identical values can stand only once.

Columns and labels:
[1] = tested on: Escherichia coli glutamyl-tRNA synthetase (GluRS); set-up: method as in PMID 15895686; settings: competitive inhibitor; cited from earlier work
[2] = target: T1, E. coli GluRS + S. cerevisiae tRNA^Phe (Escherichia coli, UniProt P04805); assay: Isothermal titration microcalorimetry of Glu-AMS binding to GluRS in the presence of non-cognate tRNA^Phe; settings: for Kd: Kd (dissociation constant), Kd = 1/Kb
T1 construct: His tag (histidine tag) (C); made in house
Experimental: (§1) Overproduction and purification of E. coli GluRS were performed as previously described with the following modifications. A C-terminal histidine-tagged GluRS was used instead of the N-terminal tagged one. The overproduction was induced overnight at 30°C with 1 mM IPTG.
(§2) Overproduction and purification of E. coli tRNA^Glu-enriched total tRNA was done as described. […] Saccharomyces cerevisiae tRNA^Phe, used as a negative control, was purchased from Sigma-Aldrich (cat No: R4018).
(§3) The GluRS solution with or without tRNA was dialyzed overnight in a D-tube dialyzer (Novagen) against 2 L of dialysis buffer (50 mM HEPES-KOH, pH 7.2, 10 mM MgCl2) at 4°C with light stirring. The next morning, the dialyzed solution was recovered and the volume adjusted by adding dialysis buffer to obtain the desired concentration (typically 9 μM GluRS and 11 μM tRNA^Glu). This solution was kept on ice until use. Glu-AMS was diluted in the dialysis buffer to obtain a final concentration of 90 μM. All buffers and solutions were degased with stirring under vacuum. The microcalorimetry experiments were carried out in a VP-ITC 100 microcalorimeter (MicroCal, GE Healthcare) using deionized water as an internal reference for all assays. VPViewer ITC 2000 and Origin v 5.0 softwares (Microcal Software, Inc) were used for data collection and analysis, respectively.
To measure the thermodynamic parameters of the interaction between Glu-AMS and GluRS, in the presence and in the absence of tRNA, a solution containing 9 μM GluRS with or without a stoichiometric excess of tRNA^Glu or S. cerevisiae tRNA^Phe (Table 1) was placed in the sample cell of the microcalorimeter. The following conditions were used for all tests: reference power was set at 12 μcal/s and stirring at 300 rpm, the “high” feedback mode and “No check Temp”, “Fast Equil” and “Auto” ITC equilibration options were selected. The 90 μM Glu-AMS solution was loaded in the injection syringe. After a first injection of 1 μL over 2 s, a series of 39 injections (7.4 μL over 14.8 s) with 240 s between injections was performed. Injections of Glu-AMS in GluRS alone, GluRS•tRNA^Glu or GluRS•tRNA^Phe, were performed at 30°C (303 K), and done in duplicate. Injections of Glu-AMS in GluRS were also performed at 20°C and 37°C (293 and 310 K): 14 injections (20 μL over 40 s) followed the first injection of 1 μL. Each temperature was tested in duplicate, and in triplicate at 37°C.
(§4) The following nomenclature was used to describe the interaction at equilibrium between Glu-AMS and either GluRS or a GluRS•tRNA complex: GluRS•Glu-AMS↔GluRS+[…] Kd=[GluRS]×[Glu-AMS]/[GluRS•Glu-AMS] 1/Kd=Kb (binding constant, sometimes referred to as Ka).

[3] = target: T2, E. coli GluRS + E. coli tRNA^Glu (Escherichia coli, UniProt P04805); assay: Isothermal titration microcalorimetry of Glu-AMS binding to GluRS in the presence of tRNA^Glu; settings: for Kd: Kd = 1/Kb
T2 construct: His tag (histidine tag) (C); made in house
Experimental: as §1, §2, §3
To measure the thermodynamic parameters of the interaction between Glu-AMS and GluRS, in the presence and in the absence of tRNA, a solution containing 9 μM GluRS with or without a stoichiometric excess of tRNA^Glu or S. cerevisiae tRNA^Phe (Table 1) was placed in the sample cell of the microcalorimeter. The following conditions were used for all tests: reference power was set at 12 μcal/s and stirring at 300 rpm, the “high” feedback mode and “No check Temp”, “Fast Equil” and “Auto” ITC equilibration options were selected. […] After a first injection of 1 μL over 2 s, a series of 39 injections (7.4 μL over 14.8 s) with 240 s between injections was performed. Injections of Glu-AMS in GluRS alone, GluRS•tRNA^Glu or GluRS•tRNA^Phe, were performed at 30°C (303 K), and done in duplicate. Injections of Glu-AMS in GluRS were also performed at 20°C and 37°C (293 and 310 K): 14 injections (20 μL over 40 s) followed the first injection of 1 μL. Each temperature was tested in duplicate, and in triplicate at 37°C.
as §4

[4] = single ITC run, tRNA^Phe 11.23 µM, 303 K, [ligand] 90 µM, [GluRS] 2.198 µM
[5] = single ITC run, tRNA^Phe 11.23 µM, 303 K, [ligand] 90 µM, [GluRS] 2.434 µM
[6] = with S. cerevisiae tRNA^Phe, 30°C, weighted mean of ITC runs
[7] = single ITC run, tRNA^Glu 5.3 µM, 303 K, [ligand] 45 µM, [GluRS] 2.636 µM
[8] = single ITC run, tRNA^Glu 10.6 µM, 303 K, [ligand] 90 µM, [GluRS] 5.792 µM
[9] = with E. coli tRNA^Glu, 30°C, weighted mean of ITC runs

T1 sequence (P04805 whole entry): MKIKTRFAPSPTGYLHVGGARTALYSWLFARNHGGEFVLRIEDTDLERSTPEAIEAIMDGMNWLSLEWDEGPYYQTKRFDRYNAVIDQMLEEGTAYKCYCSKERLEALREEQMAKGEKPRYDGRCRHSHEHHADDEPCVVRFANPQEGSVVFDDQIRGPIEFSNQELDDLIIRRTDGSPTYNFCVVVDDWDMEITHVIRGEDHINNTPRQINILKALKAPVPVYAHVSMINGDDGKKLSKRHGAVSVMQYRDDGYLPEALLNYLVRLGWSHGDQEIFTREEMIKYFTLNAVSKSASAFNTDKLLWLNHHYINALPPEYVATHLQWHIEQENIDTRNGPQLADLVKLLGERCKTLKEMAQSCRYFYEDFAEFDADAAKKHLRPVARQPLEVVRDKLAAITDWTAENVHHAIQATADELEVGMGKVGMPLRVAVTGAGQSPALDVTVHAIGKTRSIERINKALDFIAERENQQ
T2 sequence (P04805 whole entry): as above

Nc1ncnc2c1ncn2[C@@H]1O[C@H](COS(=O)(=O)NC(=O)[C@@H](N)CCC(=O)O)[C@@H](O)[C@H]1O [Glu-AMS, 5’-O-[N-(L-glutamyl)sulfamoyl]adenosine]
Ki [1]: 2.8 nM
Kd [2, 4]: 478 ± 86 nM
Kd [2, 5]: 987 ± 190 nM
-TΔSb [2, 4]: -3875 ± 242
n (stoichiometry coefficient) [2, 4]: 0.9925 ± 0.048
ΔGb (reaction energy) [2, 4]: -8.762 kcal/mol
ΔHb (reaction enthalpy) [2, 4]: -4.882 ± 0.305 kcal/mol
ΔSb (reaction entropy) [2, 4]: 12.79 ± 0.80 cal/mol·K
-TΔSb [2, 5]: -1658 ± 172
n (stoichiometry coefficient) [2, 5]: 0.9835 ± 0.0809
ΔGb (reaction energy) [2, 5]: -8.326 kcal/mol
ΔHb (reaction enthalpy) [2, 5]: -6.657 ± 0.689 kcal/mol
ΔSb (reaction entropy) [2, 5]: 5.472 ± 0.57 cal/mol·K
affinity of GluRS for Glu-AMS in the presence of the non-cognate tRNA^Phe ([2]; versus absence of tRNA): not altered
ΔGb (reaction energy) ([2]; with S. cerevisiae tRNA^Phe, 30°C, simple average, ΔGb = -RT Ln Kb): -8.544 ± 0.309 kcal/mol
-TΔSb [2, 6]: -2.398 ± 0.14 kcal/mol
n (stoichiometry coefficient) [2, 6]: 0.9902 ± 0.0410
ΔHb (reaction enthalpy) [2, 6]: -5.173 ± 0.279 kcal/mol
ΔSb (reaction entropy) [2, 6]: 7.92 ± 0.46 cal/mol·K
Kd ([3]; K d aa-AMP aaRS, in the presence of tRNA^Glu): 7 nM
Kd ([3]; Kd (dissociation constant), single ITC run, tRNA^Glu 5.3 µM, 303 K, [ligand] 45 µM, [GluRS] 2.636 µM): 5.49 ± 1.35 nM
Kd ([3]; Kd (dissociation constant), single ITC run, tRNA^Glu 10.6 µM, 303 K, [ligand] 90 µM, [GluRS] 5.792 µM): 8.96 ± 2.26 nM
-TΔSb [3, 7]: -2908 ± 33
n (stoichiometry coefficient) [3, 7]: 1.004 ± 0.006
ΔGb (reaction energy) [3, 7]: -11.452 kcal/mol
ΔHb (reaction enthalpy) [3, 7]: -8.537 ± 0.097 kcal/mol
ΔSb (reaction entropy) [3, 7]: 9.596 ± 0.11 cal/mol·K
-TΔSb [3, 8]: -3548 ± 38
n (stoichiometry coefficient) [3, 8]: 1.000 ± 0.006
ΔGb (reaction energy) [3, 8]: -11.156 kcal/mol
ΔHb (reaction enthalpy) [3, 8]: -7.61 ± 0.081 kcal/mol
ΔSb (reaction entropy) [3, 8]: 11.71 ± 0.12 cal/mol·K
-TΔSb [3, 9]: -3.186 ± 0.025 kcal/mol
n (stoichiometry coefficient) [3, 9]: 1.0018 ± 0.0041
ΔHb (reaction enthalpy) [3, 9]: -7.99 ± 0.062 kcal/mol
ΔSb (reaction entropy) [3, 9]: 10.5 cal/mol·K and 10.52 ± 0.08 cal/mol·K
fold decrease of the dissociation constant Kd in the presence of tRNA^Glu ([3]; with versus without tRNA^Glu): 50 fold
free energy of binding difference observed in the presence of tRNA^Glu ([3]; with versus without tRNA^Glu, 30°C): about 2.2 kcal/mol
